Source: patent US12269800B2, “Delivery of therapeutic alkaloid compounds” (priority 2021, dated 2025)
Read-outs that look alike come from different tables or passages of the source.

What was measured:
[1] = 5 µM
Experimental: (§1) 50 uL aliquots of positive controls and test compounds spiked into rat or human plasma (n=2) were added to a pre-warmed plate (37° C.) and shaken at 50 rpm. At each respective time point, the reaction was stopped by adding 500 μL of acetonitrile containing internal standards (100 nM aprozolam, 200 nM caffeine, 100 nM tolbutamide). All samples were vortexed for 10 minutes, followed by centrifugation at 3,220 g for 30 minutes to precipitate proteins. 100 μL of the supernatant is transferred to a new plate. The supernatant will be diluted with ultrapure water according to the LC-MS signal response and peak shape.

[2] = 5 µM; remark: listed apart in the source
Experimental: as §1

SMILES	Rat Plasma Prodrug (%) ([1]; 0 min)	Rat Plasma Prodrug (%) ([1]; 10 min)	Rat Plasma Prodrug (%) ([1]; 30 min)	Rat Plasma Prodrug (%) ([1]; 60 min)	Rat Plasma Prodrug (%) ([1]; 120 min)	Rat Plasma Prodrug (%) ([1]; 240 min)	Human Plasma Prodrug (%) ([2]; 0 min)	Human Plasma Prodrug (%) ([2]; 10 min)	Human Plasma Prodrug (%) ([2]; 30 min)	Human Plasma Prodrug (%) ([2]; 60 min)	Human Plasma Prodrug (%) ([2]; 120 min)	Human Plasma Prodrug (%) ([2]; 240 min)
CCCC(C)(C)C(=O)OC1=C[C@@H]2N(C)CC[C@]2(c2ccc(OC)c(OC)c2)CC1 [Compound 429, (3aS,7aS)-3a-(3,4-dimethoxyphenyl)-1-methyl-2,3,3a,4,5,7a-hexahydro-1H-indol-6-yl 2,2-dimethylpentanoate]	100.0%	90.4%	83.9%	71.9%	50.8%	26.2%	100.0%	>99%	96.3%	95.3%	91.8%	84.6%
CCCCCC(C)C(=O)OC1=C[C@@H]2N(C)CC[C@]2(c2ccc(OC)c(OC)c2)CC1 (stereo partly drawn) [Compound 400, (3aS,7aS)-3a-(3,4-dimethoxyphenyl)-1-methyl-2,3,3a,4,5,7a-hexahydro-1H-indol-6-yl 2-methylheptanoate]	100.0%	12.6%	0.6%	0.1%	0.1%	0.0%	100.0%	34.7%	11.6%	5.2%	2.3%	1.9%
CCCC(C)C(=O)OC1=C[C@@H]2N(C)CC[C@]2(c2ccc(OC)c(OC)c2)CC1 (stereo partly drawn) [Compound 402, (3aS,7aS)-3a-(3,4-dimethoxyphenyl)-1-methyl-2,3,3a,4,5,7a-hexahydro-1H-indol-6-yl 2-methylpentanoate]	100.0%	3.5%	0.1%	0.0%	0.0%	0.0%	100.0%	11.3%	2.9%	2.1%	1.6%	1.1%
COc1ccc([C@@]23CCC(OC(=O)CCC(C)C)=C[C@@H]2N(C)CC3)cc1OC [Compound 399, (3aS,7aS)-3a-(3,4-dimethoxyphenyl)-1-methyl-2,3,3a,4,5,7a-hexahydro-1H-indol-6-yl 4-methylpentanoate]	100.0%	0.0%	0.0%	0.0%	0.0%	0.0%	100.0%	5.6%	1.1%	0.5%	0.3%	0.2%
CCC(C)(C)C(=O)OC1=C[C@@H]2N(C)CC[C@]2(c2ccc(OC)c(OC)c2)CC1 [Compound 428, (3aS,7aS)-3a-(3,4-dimethoxyphenyl)-1-methyl-2,3,3a,4,5,7a-hexahydro-1H-indol-6-yl 2,2-dimethylbutanoate]	100.0%	90.3%	69.9%	41.7%	18.1%	3.9%	100.0%	82.9%	74.5%	69.1%	56.8%	46.0%
CCCCC(CC)C(=O)OC1=C[C@@H]2N(C)CC[C@]2(c2ccc(OC)c(OC)c2)CC1 (stereo partly drawn) [Compound 401, (3aS,7aS)-3a-(3,4-dimethoxyphenyl)-1-methyl-2,3,3a,4,5,7a-hexahydro-1H-indol-6-yl 2-ethylhexanoate]	100.0%	84.5%	55.8%	33.8%	16.3%	3.3%	100.0%	95.9%	>99%	96.6%	94.4%	93.4%
COCCCCC(=O)OC1=C[C@@H]2N(C)CC[C@]2(c2ccc(OC)c(OC)c2)CC1 [Compound 404, (3aS,7aS)-3a-(3,4-dimethoxyphenyl)-1-methyl-2,3,3a,4,5,7a-hexahydro-1H-indol-6-yl 5-methoxypentanoate]	100.0%	0.3%	0.3%	0.3%	0.3%	0.2%	100.0%	22.9%	11.5%	7.6%	3.8%	1.6%
COCCOCCC(=O)OC1=C[C@@H]2N(C)CC[C@]2(c2ccc(OC)c(OC)c2)CC1 [Compound 405, (3aS,7aS)-3a-(3,4-dimethoxyphenyl)-1-methyl-2,3,3a,4,5,7a-hexahydro-1H-indol-6-yl 3-(2-methoxyethoxy)propanoate]	100.0%	0.1%	0.0%	0.1%	0.0%	0.0%	100.0%	>99%	95.0%	87.0%	65.7%	46.7%
